Source: patent US10183014B2, “Ocular formulations for drug-delivery and protection of the anterior segment of the eye” (PanOptica, Inc., priority 2014, dated 2019)

Tests used:
MINK1 = MINK1 (Homo sapiens, UniProt Q8N4C8); experiment: In vitro inhibition of tyrosine kinases; assay type: biochemical; settings: read-out: Mean % Inhibition at 1 μM Compound-I; 1 μM (568.9 ng/mL)
SNF1LK2 = SNF1LK2 (Homo sapiens, UniProt Q9H0K1); experiment: In vitro inhibition of tyrosine kinases; assay type: biochemical; settings: read-out: Mean % Inhibition at 1 μM Compound-I; 1 μM (568.9 ng/mL)
Sequence of SNF1LK2 (Q9H0K1 whole entry, species assumed): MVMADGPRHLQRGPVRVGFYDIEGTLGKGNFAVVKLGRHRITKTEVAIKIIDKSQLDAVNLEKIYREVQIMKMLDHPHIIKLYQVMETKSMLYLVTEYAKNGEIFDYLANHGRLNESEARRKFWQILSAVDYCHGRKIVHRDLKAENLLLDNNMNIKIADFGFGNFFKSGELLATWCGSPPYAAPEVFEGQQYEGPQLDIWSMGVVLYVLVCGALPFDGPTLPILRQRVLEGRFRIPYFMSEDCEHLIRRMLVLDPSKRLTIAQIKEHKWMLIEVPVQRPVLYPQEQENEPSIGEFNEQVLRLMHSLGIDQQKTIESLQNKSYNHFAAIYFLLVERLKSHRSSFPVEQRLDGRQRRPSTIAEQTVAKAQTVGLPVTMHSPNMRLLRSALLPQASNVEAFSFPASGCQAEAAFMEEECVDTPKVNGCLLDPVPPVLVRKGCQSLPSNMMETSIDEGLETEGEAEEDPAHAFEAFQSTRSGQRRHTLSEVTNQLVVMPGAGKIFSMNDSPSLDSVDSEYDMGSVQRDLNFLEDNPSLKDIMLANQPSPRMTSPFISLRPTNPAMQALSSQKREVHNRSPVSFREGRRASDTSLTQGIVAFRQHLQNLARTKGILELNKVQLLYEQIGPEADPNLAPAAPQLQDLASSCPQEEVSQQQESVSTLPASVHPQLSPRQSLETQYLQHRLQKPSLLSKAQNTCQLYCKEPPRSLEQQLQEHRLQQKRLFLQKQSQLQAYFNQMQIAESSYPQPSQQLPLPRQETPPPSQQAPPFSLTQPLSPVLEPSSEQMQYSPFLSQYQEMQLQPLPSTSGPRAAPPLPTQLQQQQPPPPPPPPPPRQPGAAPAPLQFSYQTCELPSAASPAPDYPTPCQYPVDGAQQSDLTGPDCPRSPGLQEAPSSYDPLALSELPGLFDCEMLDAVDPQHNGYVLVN

EPHB-4 = EPHB-4 (Homo sapiens, UniProt P54760); experiment: In vitro inhibition of tyrosine kinases; assay type: biochemical; settings: read-out: Mean % Inhibition at 1 μM Compound-I; 1 μM (568.9 ng/mL)
Sequence of EPHB-4 (P54760 16-987, species assumed): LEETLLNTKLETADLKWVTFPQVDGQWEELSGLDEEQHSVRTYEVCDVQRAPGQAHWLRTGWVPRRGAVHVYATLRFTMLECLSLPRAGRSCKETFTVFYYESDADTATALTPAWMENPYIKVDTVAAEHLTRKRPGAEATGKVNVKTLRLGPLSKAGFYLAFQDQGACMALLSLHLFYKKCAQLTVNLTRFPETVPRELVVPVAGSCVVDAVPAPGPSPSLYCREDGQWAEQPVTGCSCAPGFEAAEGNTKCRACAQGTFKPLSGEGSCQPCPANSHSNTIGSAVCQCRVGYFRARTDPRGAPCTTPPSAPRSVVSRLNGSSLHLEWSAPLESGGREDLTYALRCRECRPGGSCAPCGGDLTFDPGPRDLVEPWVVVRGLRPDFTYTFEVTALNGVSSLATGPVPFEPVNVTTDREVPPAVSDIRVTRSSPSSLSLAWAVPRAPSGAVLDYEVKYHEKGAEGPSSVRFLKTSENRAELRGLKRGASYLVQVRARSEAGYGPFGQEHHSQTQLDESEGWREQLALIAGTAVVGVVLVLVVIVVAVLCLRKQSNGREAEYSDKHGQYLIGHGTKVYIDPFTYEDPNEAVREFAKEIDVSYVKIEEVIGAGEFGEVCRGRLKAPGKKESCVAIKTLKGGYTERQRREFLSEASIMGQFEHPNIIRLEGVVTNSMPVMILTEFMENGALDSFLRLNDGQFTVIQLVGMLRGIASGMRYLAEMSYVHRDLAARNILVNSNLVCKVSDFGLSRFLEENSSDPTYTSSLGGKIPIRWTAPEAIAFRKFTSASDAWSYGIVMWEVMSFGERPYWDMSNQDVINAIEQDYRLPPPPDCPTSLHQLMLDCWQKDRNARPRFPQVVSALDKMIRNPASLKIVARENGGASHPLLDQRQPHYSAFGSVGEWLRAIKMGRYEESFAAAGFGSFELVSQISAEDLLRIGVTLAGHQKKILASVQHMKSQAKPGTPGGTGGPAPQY

ABL1 T315I = ABL1 T315I (Homo sapiens, UniProt P00519, T315I); experiment: In vitro inhibition of tyrosine kinases; assay type: biochemical; settings: read-out: Mean % Inhibition at 1 μM Compound-I; 1 μM (568.9 ng/mL)
MAP4K5 (KHS1) = MAP4K5 (KHS1) (Homo sapiens, UniProt Q9Y4K4); experiment: In vitro inhibition of tyrosine kinases; assay type: biochemical; settings: read-out: Mean % Inhibition at 1 μM Compound-I; 1 μM (568.9 ng/mL)
[1] = 5-day PK with topical ocular Compound-I in cyclodextrin-based solutions (Example 6); assay type: in vivo, Dutch-Belted rabbits; settings: HPβCD solutions; for concentration at 1 h: q.d. groups (4, 5a, 6a, 7, 8, 11, 12), 4 days, 1 hr after first daily dose day 5
Experimental: All doses were administered with ±1 hour of the scheduled dose time, except on day 1 for Groups 1, 4, and 10. The first dose on day 1 was administered at 12:00 PM, and the second dose (for Groups 1 and 10) was administered approximately 4 hours after. This was due to delayed arrival of formulations. All other dosing for these groups was as scheduled. On day 1, Groups 4-8, and 11-12 received one dose (q.d.) for four (4) days. On days 1 through 4, Groups 1-3, and 9-10 received b.i.d. dosing approximately 8 hours apart for four (4) days.
Ocular sampling occurred one hour following the first daily dose on day 5 for all groups, except Groups 5b and 6b, where ocular sampling occurred 24 hours after the first daily dose on day 4.
Blood samples for plasma collection were obtained just prior to scheduled euthanasia for all animals. […] Cornea, central retina, and central choroid samples from groups 1-12 were assayed. Aqueous humor, peripheral retina, and peripheral choroid samples were not assayed.

ABL1 E255K = ABL1 E255K (Homo sapiens, UniProt P00519, E255K); experiment: In vitro inhibition of tyrosine kinases; assay type: biochemical; settings: read-out: Mean % Inhibition at 1 μM Compound-I; 1 μM (568.9 ng/mL)
[2] = Ocular toxicology studies; assay type: in vivo, beagle dogs
Description: Retinal function was normal in all test article and vehicle treated groups during full-field electroretinograms performed in rabbits.

FGR = FGR (Homo sapiens, UniProt P09769); experiment: In vitro inhibition of tyrosine kinases; assay type: biochemical; settings: read-out: Mean % Inhibition at 1 μM Compound-I; 1 μM (568.9 ng/mL)
Sequence of FGR (P09769 whole entry, species assumed): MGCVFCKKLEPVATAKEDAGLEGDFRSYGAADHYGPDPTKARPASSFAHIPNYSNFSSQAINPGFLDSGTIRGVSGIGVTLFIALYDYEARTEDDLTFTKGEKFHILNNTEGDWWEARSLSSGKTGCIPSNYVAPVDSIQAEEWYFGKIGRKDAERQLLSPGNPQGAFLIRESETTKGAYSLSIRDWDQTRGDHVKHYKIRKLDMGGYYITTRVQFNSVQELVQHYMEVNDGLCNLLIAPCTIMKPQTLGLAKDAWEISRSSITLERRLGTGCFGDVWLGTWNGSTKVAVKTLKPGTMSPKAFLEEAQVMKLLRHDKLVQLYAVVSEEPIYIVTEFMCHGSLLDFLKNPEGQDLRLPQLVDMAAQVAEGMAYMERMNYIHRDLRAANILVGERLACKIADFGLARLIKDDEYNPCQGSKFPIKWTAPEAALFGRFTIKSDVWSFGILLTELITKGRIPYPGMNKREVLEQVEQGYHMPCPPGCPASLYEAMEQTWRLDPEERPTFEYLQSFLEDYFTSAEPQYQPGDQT

LYN A = LYN A (Homo sapiens, UniProt P07948); experiment: In vitro inhibition of tyrosine kinases; assay type: biochemical; settings: read-out: Mean % Inhibition at 1 μM Compound-I; 1 μM (568.9 ng/mL)
Sequence of LYN A (P07948 whole entry, species assumed): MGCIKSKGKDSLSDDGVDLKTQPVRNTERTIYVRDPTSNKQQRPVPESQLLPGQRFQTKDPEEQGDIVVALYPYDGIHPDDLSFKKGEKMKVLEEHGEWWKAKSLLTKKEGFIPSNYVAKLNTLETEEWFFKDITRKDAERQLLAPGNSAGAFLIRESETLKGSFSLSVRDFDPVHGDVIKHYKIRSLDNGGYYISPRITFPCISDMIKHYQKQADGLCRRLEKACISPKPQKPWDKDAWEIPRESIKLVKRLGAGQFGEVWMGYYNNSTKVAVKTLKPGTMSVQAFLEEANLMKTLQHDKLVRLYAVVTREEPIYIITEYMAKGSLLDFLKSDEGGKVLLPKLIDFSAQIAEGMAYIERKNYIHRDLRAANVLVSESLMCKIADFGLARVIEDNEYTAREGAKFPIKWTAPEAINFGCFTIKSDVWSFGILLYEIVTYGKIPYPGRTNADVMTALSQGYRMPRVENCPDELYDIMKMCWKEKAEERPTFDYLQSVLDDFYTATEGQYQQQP

PTK6 (Brk) = PTK6 (Brk) (Homo sapiens, UniProt Q13882); experiment: In vitro inhibition of tyrosine kinases; assay type: biochemical; settings: read-out: Mean % Inhibition at 1 μM Compound-I; 1 μM (568.9 ng/mL)
FGFR-2 = FGFR-2 (Homo sapiens, UniProt P21802); experiment: In vitro inhibition of tyrosine kinases; assay type: biochemical
Sequence of FGFR-2 (P21802 22-821, species assumed): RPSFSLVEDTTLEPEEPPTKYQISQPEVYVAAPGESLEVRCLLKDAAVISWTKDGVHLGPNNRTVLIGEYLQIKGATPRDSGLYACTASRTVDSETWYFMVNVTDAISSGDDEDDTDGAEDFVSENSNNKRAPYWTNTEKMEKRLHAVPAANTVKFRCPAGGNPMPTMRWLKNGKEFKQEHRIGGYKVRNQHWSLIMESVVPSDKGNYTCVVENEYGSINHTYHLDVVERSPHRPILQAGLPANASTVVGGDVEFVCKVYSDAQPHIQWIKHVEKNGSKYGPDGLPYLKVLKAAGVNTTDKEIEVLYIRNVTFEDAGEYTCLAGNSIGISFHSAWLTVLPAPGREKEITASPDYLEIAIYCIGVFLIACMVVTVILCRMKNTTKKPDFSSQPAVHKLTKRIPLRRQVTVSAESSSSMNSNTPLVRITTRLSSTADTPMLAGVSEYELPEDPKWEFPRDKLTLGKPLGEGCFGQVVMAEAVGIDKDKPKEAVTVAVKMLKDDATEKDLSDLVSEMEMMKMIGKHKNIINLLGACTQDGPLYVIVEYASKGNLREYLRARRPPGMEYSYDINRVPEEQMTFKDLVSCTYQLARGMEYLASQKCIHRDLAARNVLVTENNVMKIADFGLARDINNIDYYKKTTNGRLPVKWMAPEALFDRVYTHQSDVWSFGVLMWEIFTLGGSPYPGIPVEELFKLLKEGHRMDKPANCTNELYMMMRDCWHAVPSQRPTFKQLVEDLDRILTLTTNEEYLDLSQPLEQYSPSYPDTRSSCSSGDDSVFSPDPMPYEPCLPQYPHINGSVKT

KDR (VEGFR-2) = KDR (VEGFR-2) (Homo sapiens, UniProt P35968); experiment: In vitro inhibition of tyrosine kinases; assay type: biochemical; settings: 300 nM (170.67 ng/mL)
Sequence of KDR (VEGFR-2) (P35968 20-1356): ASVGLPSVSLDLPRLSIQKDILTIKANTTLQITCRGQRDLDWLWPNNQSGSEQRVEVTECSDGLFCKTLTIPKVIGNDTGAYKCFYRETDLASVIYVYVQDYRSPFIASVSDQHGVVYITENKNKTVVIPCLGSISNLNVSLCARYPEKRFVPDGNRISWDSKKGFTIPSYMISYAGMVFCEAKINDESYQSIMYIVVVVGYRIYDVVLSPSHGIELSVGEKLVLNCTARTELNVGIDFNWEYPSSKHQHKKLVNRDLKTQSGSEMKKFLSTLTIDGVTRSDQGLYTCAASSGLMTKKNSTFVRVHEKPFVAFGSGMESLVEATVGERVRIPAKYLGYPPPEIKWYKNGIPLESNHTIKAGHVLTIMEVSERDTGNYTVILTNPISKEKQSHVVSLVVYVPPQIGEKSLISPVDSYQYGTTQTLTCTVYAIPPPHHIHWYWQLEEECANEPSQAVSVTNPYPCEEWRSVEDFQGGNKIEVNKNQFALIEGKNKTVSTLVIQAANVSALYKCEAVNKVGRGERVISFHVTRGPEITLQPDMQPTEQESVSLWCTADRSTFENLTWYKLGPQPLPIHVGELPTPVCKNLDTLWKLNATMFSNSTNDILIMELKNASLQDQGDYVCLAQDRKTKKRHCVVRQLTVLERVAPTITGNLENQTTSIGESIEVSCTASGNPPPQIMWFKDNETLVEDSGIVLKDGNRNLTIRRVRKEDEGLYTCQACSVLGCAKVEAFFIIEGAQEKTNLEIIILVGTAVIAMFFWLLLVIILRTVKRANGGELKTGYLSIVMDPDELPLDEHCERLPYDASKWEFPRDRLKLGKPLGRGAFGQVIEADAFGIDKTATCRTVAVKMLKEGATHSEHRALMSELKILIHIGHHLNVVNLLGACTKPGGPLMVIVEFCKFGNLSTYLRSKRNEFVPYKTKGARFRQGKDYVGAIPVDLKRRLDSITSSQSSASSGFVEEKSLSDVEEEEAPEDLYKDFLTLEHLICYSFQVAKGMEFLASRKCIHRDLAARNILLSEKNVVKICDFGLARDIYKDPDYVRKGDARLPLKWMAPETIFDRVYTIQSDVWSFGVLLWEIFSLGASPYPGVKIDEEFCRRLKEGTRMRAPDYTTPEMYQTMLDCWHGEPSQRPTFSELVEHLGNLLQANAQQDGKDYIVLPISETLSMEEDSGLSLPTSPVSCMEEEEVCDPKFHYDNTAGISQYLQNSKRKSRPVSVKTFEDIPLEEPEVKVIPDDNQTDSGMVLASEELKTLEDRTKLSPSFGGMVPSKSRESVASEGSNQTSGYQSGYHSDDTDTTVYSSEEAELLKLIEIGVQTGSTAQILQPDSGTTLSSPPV

EPHB-1 = EPHB-1 (Homo sapiens, UniProt P54762); experiment: In vitro inhibition of tyrosine kinases; assay type: biochemical; settings: read-out: Mean % Inhibition at 1 μM Compound-I; 1 μM (568.9 ng/mL)
[3] = PK with topical ocular Compound-I in sodium phosphate-based Gel Drop; assay type: in vivo, Dutch-Belted rabbits; settings: Dutch-Belted, rabbit, Gel Drop 6 mg/ml, 3x per day, 4 days, 1 hour after last dose
Description: The Gel Drop of Compound-I was applied to eyes of Dutch-belted rabbits.

[4] = system: retinal and choroidal neovascularization; experiment: Pathologic retinal and choroidal neovascularization, rodent models, topical ocular delivery; assay type: in vivo
[5] = Ocular pharmacokinetics of formulations, Example 20-4; assay type: in vivo, Dutch Belted rabbits; settings: Dutch Belted, rabbit, topical, Day 5, 1 hr post dose
Experimental: The study design (Table 18-1) consisted of forty-nine (49) Dutch Belted rabbits, each receiving a 30 μL bilateral topical ocular dose.
Ocular sampling occurred one hour following the first daily dose on Day 5 for all groups. Whole blood samples using K2EDTA as an anticoagulant were collected from all animals on Day 5, 1 hour post dose. The whole blood was placed on ice until samples were spun in a centrifuge to separate the plasma. Aqueous humor, conjunctiva, cornea, central retina, peripheral retina, central choroid, and peripheral choroid samples were collected following necropsy. Samples were then frozen at −70° C. or lower. For all Groups 1-16, plasma, central retina, central choroid, and cornea samples were assayed for PAN-90806.

With Cl.NC(=O)c1c(OCc2c(F)cc(Br)cc2F)nsc1NC(=O)NCCCCN1CCCC1 [Compound-I, 3-[(4-bromo-2,6-difluorophenyl)methoxy]-5-[[[[4-(1-pyrrolidinyl)butyl]amino]carbonyl]amino]-4-isothiazolecarboxamide hydrochloride] the inhibition at 1 µM (MINK1) was 100%, the inhibition at 1 µM (SNF1LK2) was 82% and the inhibition at 1 µM (EPHB-4) was 80%. For the same compound, the inhibition at 1 µM (ABL1 T315I) was 101%, the inhibition at 1 µM (MAP4K5 (KHS1)) was 94% and the concentration at 24 h ([1]; Dutch-Belted, rabbit, central choroid, topical, 30 μL bilateral, q.d. groups 5b, 6b, 24 hr after first daily dose day 4) was 194 nM. For the same compound, the concentration at 1 h ([1]; Dutch-Belted, rabbit, central choroid, topical, 30 μL bilateral, read-out: Average Concentration Central Choroid) was 203 nM, the concentration at 1 h ([1]; Dutch-Belted, rabbit, central retina, topical, 30 μL bilateral, read-out: Average Concentration Central Retina) was 48.1 nM and the “Average Concentration Central Retina” value ([1]; q.d. groups 5b, 6b, 24 hr after first daily dose day 4) was “<LLOQ”. For the same compound, the inhibition at 1 µM (ABL1 E255K) was 90%, the “Cornea concentration above which ocular side effects were more consistently observed” value ([2]; discomfort, inflammation, corneal thinning) was “exceeded 100 μM” and the Corneal tissue exposure ([2]; ophthalmic gel drops, topical ocular dosing) was at least 100 µM. For the same compound, the inhibition at 1 µM (FGR) was 91%, the inhibition at 1 µM (LYN A) was 81% and the inhibition at 1 µM (PTK6 (Brk)) was 88%. The inhibition at 0.3 µM (FGFR-2; read-out: Mean % Inhibition at 300 nM Compound-I, 300 nM (170.67 ng/mL)) was 103%, the inhibition at 1 µM (FGFR-2; read-out: Mean % Inhibition at 1 μM Compound-I, 1 μM (568.9 ng/mL)) was 99% and the “Mean % Inhibition at 300 nM Compound-I” value (KDR (VEGFR-2)) was “completely inhibited”. It also gave an inhibition at 1 µM (EPHB-1) of 83%, a concentration at 1 h ([3]; aqueous humor (AH), read-out: Mean [AH]) of 50.9 nM and a concentration at 1 h ([3]; plasma, read-out: [plasma]) of 12.5 nM. The “Pathologic retinal and choroidal neovascularization” value [4] was “significant inhibition”, the concentration at 1 h ([5]; central choroid, 4 mg/mL (30 μL per eye, bilateral), pH 6, Group 3: 4 mg/mL Salt, eye drops solution (control), pH 6, QD, read-out: Central Choroid concentration) was 181 nM and the concentration at 1 h ([5]; central choroid, 4 mg/mL (30 μL per eye, bilateral), Group 16: 4 mg/mL Salt suspension, PSD 30 μm/XL, TRIS 0.60%, glycerol 2%, HEC 0.2%, HPMC 0.08%, VitK3 1 μM, pH 7, QD, read-out: Central Choroid concentration) was 208 nM. The concentration at 1 h ([5]; central choroid, 30 μL per eye of 4 mg/mL suspension, Group 7: 4 mg/mL Salt suspension, PSD 30 μm/XL, TRIS 0.60%, glycerol 2%, HEC 0.3%, Tylox 0.04%, VitK3 1 μM, pH 6, QD, read-out: Central Choroid concentration) was 142 nM, the concentration at 1 h ([5]; central choroid, 30 μL per eye of 4 mg/mL suspension, Group 9: 4 mg/mL Salt suspension, PSD 30 μm/XL, TRIS 0.60%, glycerol 2%, HEC 0.3%, Tylox 0.04%, VitK3 1 μM, pH 7, QD, read-out: Central Choroid concentration) was 224 nM and the concentration at 1 h ([5]; central choroid, 30 μL per eye of 6 mg/mL suspension, Group 6: 6 mg/mL Salt suspension, PSD 30 μm/XL, TRIS 0.60%, glycerol 2%, HEC 0.2%, HPMC 0.08%, VitK3 1 μM, pH 6, QD, read-out: Central Choroid concentration) was 243 nM. For the same compound, the concentration at 1 h ([5]; central retina, 0.3 mg/mL (30 μL per eye, bilateral), pH 6, Group 1: 0.3 mg/mL Salt, pH 6, BID, read-out: Central Retina concentration) was 16.3 nM, the concentration at 1 h ([5]; central retina, 1 mg/mL (30 μL per eye, bilateral), pH 6, Group 2: 1 mg/mL Salt, eye drops solution (control), pH 6, QD, read-out: Central Retina concentration) was 34.7 nM and the concentration at 1 h ([5]; central retina, 4 mg/mL (30 μL per eye, bilateral), pH 6, Group 3: 4 mg/mL Salt, eye drops solution (control), pH 6, QD, read-out: Central Retina concentration) was 83.7 nM. It also gave a concentration at 1 h ([5]; central retina, 4 mg/mL (30 μL per eye, bilateral), Group 16: 4 mg/mL Salt suspension, PSD 30 μm/XL, TRIS 0.60%, glycerol 2%, HEC 0.2%, HPMC 0.08%, VitK3 1 μM, pH 7, QD, read-out: Central Retina concentration) of 74.4 nM, a concentration at 1 h ([5]; central retina, 30 μL per eye of 6 mg/mL suspension, Group 6: 6 mg/mL Salt suspension, PSD 30 μm/XL, TRIS 0.60%, glycerol 2%, HEC 0.2%, HPMC 0.08%, VitK3 1 μM, pH 6, QD, read-out: Central Retina concentration) of 136 nM and a concentration at 1 h ([5]; cornea, 0.3 mg/mL (30 μL per eye, bilateral), pH 6, Group 1: 0.3 mg/mL Salt, pH 6, BID, read-out: Cornea concentration) of 3330 nM.
